Literature values, collected in US8193242B2 (XenoPort, Inc., priority 2005, dated 2012).

Settings: following oral administration

Which results are given for `CC(C)(C)C(=O)Oc1ccc(C[C@H](N)C(=O)O)cc1O` [NB-355]?
Duration of circulating levodopa: prolonged; Plasma concentrations of levodopa: low
